What was measured:
Test in all cases: KinomeScan kinase panel
Format in all cases: binding
ACVR1 = target: T1, ACVR1 (Homo sapiens, UniProt Q04771)
T1 construct: purchased DiscoveRx Corporation (KinomeScan)
How it was run: (§1)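 Tested at 1000 nM in the KinomeScan 442-kinase competition binding panel, with inhibition of each kinase or mutant reported at that single concentration.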

ACVR1B = target: T2, ACVR1B (Homo sapiens, UniProt P36896)
T2 construct: purchased DiscoveRx Corporation (KinomeScan)
How it was run: as §1

BRAF(V600E) = target: T3, BRAF(V600E) (Homo sapiens, UniProt P15056, V600E)
T3 construct: purchased DiscoveRx Corporation (KinomeScan)
How it was run: as §1

CAMK4 = target: T4, CAMK4 (Homo sapiens, UniProt Q16566)
T4 construct: purchased DiscoveRx Corporation (KinomeScan)
T4 sequence (Q16566 whole entry): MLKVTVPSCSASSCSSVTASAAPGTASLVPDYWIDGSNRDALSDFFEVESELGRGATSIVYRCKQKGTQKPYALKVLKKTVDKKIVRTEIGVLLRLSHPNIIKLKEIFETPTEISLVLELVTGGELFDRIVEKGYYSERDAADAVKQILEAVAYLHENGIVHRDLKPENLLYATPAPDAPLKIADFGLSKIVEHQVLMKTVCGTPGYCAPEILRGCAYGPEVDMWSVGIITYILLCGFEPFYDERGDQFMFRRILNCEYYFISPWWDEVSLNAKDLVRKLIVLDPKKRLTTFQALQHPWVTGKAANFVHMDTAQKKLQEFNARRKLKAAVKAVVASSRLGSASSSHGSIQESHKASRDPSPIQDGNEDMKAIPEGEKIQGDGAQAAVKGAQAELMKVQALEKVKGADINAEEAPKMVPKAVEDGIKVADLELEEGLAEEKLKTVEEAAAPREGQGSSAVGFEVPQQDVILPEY
How it was run: as §1

CDC2L2 = target: T5, CDC2L2 (Homo sapiens, UniProt Q9UQ88)
T5 construct: purchased DiscoveRx Corporation (KinomeScan)
How it was run: as §1

CDC2L5 = target: T6, CDC2L5 (Homo sapiens, UniProt Q14004)
T6 construct: purchased DiscoveRx Corporation (KinomeScan)
T6 sequence (Q14004 whole entry): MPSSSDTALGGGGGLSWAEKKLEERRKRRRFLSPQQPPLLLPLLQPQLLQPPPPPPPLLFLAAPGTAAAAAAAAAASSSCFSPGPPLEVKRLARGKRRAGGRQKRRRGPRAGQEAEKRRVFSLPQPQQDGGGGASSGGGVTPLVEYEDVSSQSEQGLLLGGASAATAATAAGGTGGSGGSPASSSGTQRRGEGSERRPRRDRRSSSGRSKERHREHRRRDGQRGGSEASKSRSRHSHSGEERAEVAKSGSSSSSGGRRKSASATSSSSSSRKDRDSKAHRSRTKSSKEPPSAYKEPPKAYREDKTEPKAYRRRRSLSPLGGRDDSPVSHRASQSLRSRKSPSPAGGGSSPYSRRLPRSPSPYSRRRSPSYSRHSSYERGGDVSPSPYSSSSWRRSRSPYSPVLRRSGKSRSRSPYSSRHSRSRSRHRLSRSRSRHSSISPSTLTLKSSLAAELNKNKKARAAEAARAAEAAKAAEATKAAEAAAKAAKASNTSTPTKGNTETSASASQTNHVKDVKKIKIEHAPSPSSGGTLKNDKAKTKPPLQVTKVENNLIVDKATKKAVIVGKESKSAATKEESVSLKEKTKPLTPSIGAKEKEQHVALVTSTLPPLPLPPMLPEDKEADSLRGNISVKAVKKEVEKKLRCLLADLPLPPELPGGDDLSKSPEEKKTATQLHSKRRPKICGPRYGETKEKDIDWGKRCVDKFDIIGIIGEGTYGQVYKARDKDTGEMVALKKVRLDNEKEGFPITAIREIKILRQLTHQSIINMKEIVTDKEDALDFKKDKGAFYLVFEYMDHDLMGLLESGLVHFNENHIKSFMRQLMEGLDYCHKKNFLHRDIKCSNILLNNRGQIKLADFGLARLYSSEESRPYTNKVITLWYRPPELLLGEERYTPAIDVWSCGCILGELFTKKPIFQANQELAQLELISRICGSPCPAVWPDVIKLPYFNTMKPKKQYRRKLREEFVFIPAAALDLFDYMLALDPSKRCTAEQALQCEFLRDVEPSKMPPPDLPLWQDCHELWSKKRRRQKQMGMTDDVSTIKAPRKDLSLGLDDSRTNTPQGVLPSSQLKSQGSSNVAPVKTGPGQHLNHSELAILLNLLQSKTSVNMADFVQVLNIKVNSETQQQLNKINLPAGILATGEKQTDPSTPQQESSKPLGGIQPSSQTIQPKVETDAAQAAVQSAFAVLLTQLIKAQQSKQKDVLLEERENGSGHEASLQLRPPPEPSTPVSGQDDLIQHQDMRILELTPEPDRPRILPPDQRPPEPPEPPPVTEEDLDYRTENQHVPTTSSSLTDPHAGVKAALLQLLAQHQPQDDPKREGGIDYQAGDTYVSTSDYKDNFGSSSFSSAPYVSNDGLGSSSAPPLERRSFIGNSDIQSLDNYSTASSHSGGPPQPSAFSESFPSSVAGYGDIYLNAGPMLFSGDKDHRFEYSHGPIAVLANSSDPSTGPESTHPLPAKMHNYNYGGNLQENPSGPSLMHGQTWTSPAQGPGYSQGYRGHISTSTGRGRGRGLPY
How it was run: as §1

CDK8 = target: T7, CDK8 (Homo sapiens, UniProt P49336)
T7 construct: purchased DiscoveRx Corporation (KinomeScan)
How it was run: as §1

CDKL3 = target: T8, CDKL3 (Homo sapiens, UniProt Q8IVW4)
T8 construct: purchased DiscoveRx Corporation (KinomeScan)
How it was run: as §1

DYRK1A = target: T9, DYRK1A (Homo sapiens, UniProt Q13627)
T9 construct: purchased DiscoveRx Corporation (KinomeScan)
How it was run: as §1

EGFR(G719S) = target: T10, EGFR(G719S) (Homo sapiens, UniProt P00533, G719S)
T10 construct: purchased DiscoveRx Corporation (KinomeScan)
How it was run: as §1

EPHA5 = target: T11, EPHA5 (Homo sapiens, UniProt P54756)
T11 construct: purchased DiscoveRx Corporation (KinomeScan)
How it was run: as §1

EPHB4 = target: T12, EPHB4 (Homo sapiens, UniProt P54760)
T12 construct: purchased DiscoveRx Corporation (KinomeScan)
How it was run: as §1

ERBB3 = target: T13, ERBB3 (Homo sapiens, UniProt P21860)
T13 construct: purchased DiscoveRx Corporation (KinomeScan)
How it was run: as §1

ERK1 = target: T14, ERK1 (Homo sapiens, UniProt P27361)
T14 construct: purchased DiscoveRx Corporation (KinomeScan)
How it was run: as §1

ERK4 = target: T15, ERK4 (Homo sapiens, UniProt P31152)
T15 construct: purchased DiscoveRx Corporation (KinomeScan)
How it was run: as §1

ERK8 = target: T16, ERK8 (Homo sapiens, UniProt Q8TD08)
T16 construct: purchased DiscoveRx Corporation (KinomeScan)
How it was run: as §1

FER = target: T17, FER (Homo sapiens, UniProt P16591)
T17 construct: purchased DiscoveRx Corporation (KinomeScan)
T17 sequence (P16591 whole entry): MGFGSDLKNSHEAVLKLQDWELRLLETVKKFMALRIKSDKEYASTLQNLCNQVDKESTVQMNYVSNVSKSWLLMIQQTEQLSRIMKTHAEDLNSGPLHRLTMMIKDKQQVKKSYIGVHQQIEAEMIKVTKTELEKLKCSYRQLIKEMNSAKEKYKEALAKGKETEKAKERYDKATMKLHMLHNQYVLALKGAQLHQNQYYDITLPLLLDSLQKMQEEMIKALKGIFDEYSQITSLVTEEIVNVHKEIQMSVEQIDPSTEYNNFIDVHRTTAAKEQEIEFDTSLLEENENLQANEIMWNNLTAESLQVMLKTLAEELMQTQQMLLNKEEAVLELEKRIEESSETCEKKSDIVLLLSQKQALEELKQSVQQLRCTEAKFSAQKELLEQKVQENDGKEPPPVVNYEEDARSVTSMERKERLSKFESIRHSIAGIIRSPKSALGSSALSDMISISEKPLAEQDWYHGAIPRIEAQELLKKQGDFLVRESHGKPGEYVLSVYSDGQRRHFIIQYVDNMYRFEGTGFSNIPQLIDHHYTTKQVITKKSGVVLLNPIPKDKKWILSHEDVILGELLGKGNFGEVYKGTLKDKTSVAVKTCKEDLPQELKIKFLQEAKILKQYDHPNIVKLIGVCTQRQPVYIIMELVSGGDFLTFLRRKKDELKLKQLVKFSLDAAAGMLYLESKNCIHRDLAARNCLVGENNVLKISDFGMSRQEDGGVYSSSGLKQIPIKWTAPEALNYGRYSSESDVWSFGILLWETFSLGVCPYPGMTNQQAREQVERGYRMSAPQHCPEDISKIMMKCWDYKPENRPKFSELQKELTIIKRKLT
How it was run: as §1

FGFR = target: T18, FGFR (Homo sapiens, UniProt P21802)
T18 construct: purchased DiscoveRx Corporation (KinomeScan)
How it was run: as §1

FGFR4 = target: T19, FGFR4 (Homo sapiens, UniProt P22455)
T19 construct: purchased DiscoveRx Corporation (KinomeScan)
T19 sequence (P22455 22-802): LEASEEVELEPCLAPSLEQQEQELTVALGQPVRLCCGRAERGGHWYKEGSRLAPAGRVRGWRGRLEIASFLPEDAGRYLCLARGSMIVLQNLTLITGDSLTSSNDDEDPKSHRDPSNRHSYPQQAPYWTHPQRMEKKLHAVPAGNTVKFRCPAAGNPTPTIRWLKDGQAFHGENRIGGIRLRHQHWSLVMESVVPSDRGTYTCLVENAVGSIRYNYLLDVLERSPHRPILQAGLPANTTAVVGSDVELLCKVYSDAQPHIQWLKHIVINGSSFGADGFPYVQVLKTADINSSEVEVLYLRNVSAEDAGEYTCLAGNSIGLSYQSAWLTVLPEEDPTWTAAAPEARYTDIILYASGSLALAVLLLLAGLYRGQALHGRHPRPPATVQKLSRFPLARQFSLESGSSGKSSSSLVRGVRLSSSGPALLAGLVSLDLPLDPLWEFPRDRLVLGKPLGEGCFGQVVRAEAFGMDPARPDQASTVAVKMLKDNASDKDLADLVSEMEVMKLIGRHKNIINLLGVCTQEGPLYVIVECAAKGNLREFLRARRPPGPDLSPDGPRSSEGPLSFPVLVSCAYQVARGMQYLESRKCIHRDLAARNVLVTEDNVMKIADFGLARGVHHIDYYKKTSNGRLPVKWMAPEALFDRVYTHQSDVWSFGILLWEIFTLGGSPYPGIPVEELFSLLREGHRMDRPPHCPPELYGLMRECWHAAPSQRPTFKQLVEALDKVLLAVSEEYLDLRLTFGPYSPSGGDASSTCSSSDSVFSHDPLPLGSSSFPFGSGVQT
How it was run: as §1

FLT3(D835Y) = target: T20, FLT3(D835Y) (Homo sapiens, UniProt P36888, D835Y)
T20 construct: purchased DiscoveRx Corporation (KinomeScan)
How it was run: as §1

INSR = target: T21, INSR (Homo sapiens, UniProt P06213)
T21 construct: purchased DiscoveRx Corporation (KinomeScan)
How it was run: as §1

[1] = target: T22, JAK3(JH1domain-catalytic) (Homo sapiens, UniProt P52333)
T22 construct: JAK3(JH1domain-catalytic); purchased DiscoveRx Corporation (KinomeScan)
How it was run: as §1

LKB1 = target: T23, LKB1 (Homo sapiens, UniProt Q15831)
T23 construct: purchased DiscoveRx Corporation (KinomeScan)
How it was run: as §1

LRRK2(G2019S) = target: T24, LRRK2(G2019S) (Homo sapiens, UniProt Q5S007, G2019S)
T24 construct: purchased DiscoveRx Corporation (KinomeScan)
How it was run: as §1

MAST1 = target: T25, MAST1 (Homo sapiens, UniProt Q9Y2H9)
T25 construct: purchased DiscoveRx Corporation (KinomeScan)
How it was run: as §1

MKNK1 = target: T26, MKNK1 (Homo sapiens, UniProt Q9BUB5)
T26 construct: purchased DiscoveRx Corporation (KinomeScan)
How it was run: as §1

PIK3CD = target: T27, PIK3CD (Homo sapiens, UniProt O00329)
T27 construct: purchased DiscoveRx Corporation (KinomeScan)
How it was run: as §1

PKA7 = target: T28, PKA7 (Homo sapiens, UniProt Q9P286)
T28 construct: purchased DiscoveRx Corporation (KinomeScan panel)
How it was run: as §1

PLK4 = target: T29, PLK4 (Homo sapiens, UniProt O00444)
T29 construct: purchased DiscoveRx Corporation (KinomeScan)
T29 sequence (O00444 whole entry): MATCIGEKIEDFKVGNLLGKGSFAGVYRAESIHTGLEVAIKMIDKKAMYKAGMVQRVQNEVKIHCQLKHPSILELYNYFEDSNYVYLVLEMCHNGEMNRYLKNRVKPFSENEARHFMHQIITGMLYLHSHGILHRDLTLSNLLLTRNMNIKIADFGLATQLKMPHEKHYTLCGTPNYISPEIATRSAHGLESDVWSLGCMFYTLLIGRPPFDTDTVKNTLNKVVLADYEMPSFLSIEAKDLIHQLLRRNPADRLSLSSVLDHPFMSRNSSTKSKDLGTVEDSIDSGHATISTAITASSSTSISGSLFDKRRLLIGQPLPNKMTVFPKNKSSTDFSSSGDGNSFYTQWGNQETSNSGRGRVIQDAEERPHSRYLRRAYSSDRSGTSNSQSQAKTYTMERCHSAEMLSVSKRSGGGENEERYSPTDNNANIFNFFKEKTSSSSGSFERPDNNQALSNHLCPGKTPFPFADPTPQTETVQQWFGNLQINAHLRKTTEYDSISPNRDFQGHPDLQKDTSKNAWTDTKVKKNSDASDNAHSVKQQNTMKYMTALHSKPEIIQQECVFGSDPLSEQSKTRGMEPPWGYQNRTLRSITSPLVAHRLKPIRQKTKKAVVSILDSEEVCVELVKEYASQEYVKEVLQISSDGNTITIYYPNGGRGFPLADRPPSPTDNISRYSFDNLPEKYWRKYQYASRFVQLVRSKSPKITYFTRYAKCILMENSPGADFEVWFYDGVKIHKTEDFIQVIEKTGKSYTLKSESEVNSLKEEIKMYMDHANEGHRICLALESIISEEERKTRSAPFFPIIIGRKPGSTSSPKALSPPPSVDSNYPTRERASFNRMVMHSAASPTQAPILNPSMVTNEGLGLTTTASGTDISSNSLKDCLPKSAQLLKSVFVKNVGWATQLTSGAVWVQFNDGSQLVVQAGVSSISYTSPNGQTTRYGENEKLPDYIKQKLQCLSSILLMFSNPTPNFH
How it was run: as §1

SRC = target: T30, SRC (Homo sapiens, UniProt P12931)
T30 construct: purchased DiscoveRx Corporation (KinomeScan)
T30 sequence (P12931 whole entry): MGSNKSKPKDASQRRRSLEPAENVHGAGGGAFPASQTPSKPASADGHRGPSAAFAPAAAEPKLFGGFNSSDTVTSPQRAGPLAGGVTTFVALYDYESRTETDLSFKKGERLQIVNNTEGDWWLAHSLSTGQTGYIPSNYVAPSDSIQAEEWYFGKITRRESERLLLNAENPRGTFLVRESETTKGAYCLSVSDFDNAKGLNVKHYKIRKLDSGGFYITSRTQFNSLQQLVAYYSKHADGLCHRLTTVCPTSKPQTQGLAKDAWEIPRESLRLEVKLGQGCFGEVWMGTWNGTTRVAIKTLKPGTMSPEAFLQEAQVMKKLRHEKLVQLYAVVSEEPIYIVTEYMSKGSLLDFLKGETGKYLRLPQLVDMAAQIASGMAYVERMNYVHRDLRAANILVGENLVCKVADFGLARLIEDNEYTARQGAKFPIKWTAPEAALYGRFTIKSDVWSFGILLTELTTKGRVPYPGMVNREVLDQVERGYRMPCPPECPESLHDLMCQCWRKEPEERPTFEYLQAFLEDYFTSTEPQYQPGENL
How it was run: as §1

SRPK2 = target: T31, SRPK2 (Homo sapiens, UniProt P78362)
T31 construct: purchased DiscoveRx Corporation (KinomeScan)
How it was run: as §1

TAOK2 = target: T32, TAOK2 (Homo sapiens, UniProt Q9UL54)
T32 construct: purchased DiscoveRx Corporation (KinomeScan)
How it was run: as §1

TIE1 = target: T33, TIE1 (Homo sapiens, UniProt P35590)
T33 construct: purchased DiscoveRx Corporation (KinomeScan)
How it was run: as §1

TRKB = target: T34, TRKB (Homo sapiens, UniProt Q16620)
T34 construct: purchased DiscoveRx Corporation (KinomeScan)
How it was run: as §1

TTK = target: T35, TTK (Homo sapiens, UniProt P33981)
T35 construct: purchased DiscoveRx Corporation (KinomeScan)
How it was run: as §1

VRK2 = target: T36, VRK2 (Homo sapiens, UniProt Q86Y07)
T36 construct: purchased DiscoveRx Corporation (KinomeScan service)
How it was run: as §1

## CCOP(=O)(CN1CCC(COc2cc3nccc(Oc4ccc(NC(=O)C5(C(=O)Nc6ccc(F)cc6)CC5)cc4F)c3cc2OC)CC1)OCC [Example 10, N1-[4-[[7-[[1-(diethoxyphosphorylmethyl)-4-piperidinyl]methoxyl]-6-methoxyl-4-quinolyl]oxyl]-3-fluorophenyl]-N1′-(4-fluorophenyl)cyclopropane-1,1-dicarboxamide]
ACVR1
  % Ctrl@1000 nM: 100 % Ctrl
ACVR1B
  % Ctrl@1000 nM: 100 % Ctrl
BRAF(V600E)
  % Ctrl@1000 nM: 100 % Ctrl
CAMK4
  % Ctrl@1000 nM: 100 % Ctrl
CDC2L2
  % Ctrl@1000 nM: 100 % Ctrl
CDC2L5
  % Ctrl@1000 nM: 100 % Ctrl
CDK8
  % Ctrl@1000 nM: 76 % Ctrl
CDKL3
  % Ctrl@1000 nM: 100 % Ctrl
DYRK1A
  % Ctrl@1000 nM: 100 % Ctrl
EGFR(G719S)
  % Ctrl@1000 nM: 81 % Ctrl
EPHA5
  % Ctrl@1000 nM: 3.5 % Ctrl
EPHB4
  % Ctrl@1000 nM: 12 % Ctrl
ERBB3
  % Ctrl@1000 nM: 98 % Ctrl
ERK1
  % Ctrl@1000 nM: 99 % Ctrl
ERK4
  % Ctrl@1000 nM: 100 % Ctrl
ERK8
  % Ctrl@1000 nM: 95 % Ctrl
FER
  % Ctrl@1000 nM: 50 % Ctrl
FGFR
  % Ctrl@1000 nM: 76 % Ctrl
FGFR4
  % Ctrl@1000 nM: 100 % Ctrl
FLT3(D835Y)
  % Ctrl@1000 nM: 2.4 % Ctrl
INSR
  % Ctrl@1000 nM: 54 % Ctrl
[1]
  % Ctrl@1000 nM: 100 % Ctrl
LKB1
  % Ctrl@1000 nM: 100 % Ctrl
LRRK2(G2019S)
  % Ctrl@1000 nM: 100 % Ctrl
MAST1
  % Ctrl@1000 nM: 100 % Ctrl
MKNK1
  % Ctrl@1000 nM: 45 % Ctrl
PIK3CD
  % Ctrl@1000 nM: 100 % Ctrl
PKA7
  % Ctrl@1000 nM: 100 % Ctrl
PLK4
  % Ctrl@1000 nM: 7.4 % Ctrl
SRC
  % Ctrl@1000 nM: 3.2 % Ctrl
SRPK2
  % Ctrl@1000 nM: 100 % Ctrl
TAOK2
  % Ctrl@1000 nM: 70 % Ctrl
TIE1
  % Ctrl@1000 nM: 4 % Ctrl
TRKB
  % Ctrl@1000 nM: 4 % Ctrl
TTK
  % Ctrl@1000 nM: 84 % Ctrl
VRK2
  % Ctrl@1000 nM: 100 % Ctrl

Source: patent US8933230B2, “Phosphorus-containing group-substituted quinoline, its preparation process, medical composition containing the compounds and application” (priority 2011, dated 2015)
